Source: patent EP0116255A2, “Treatment of migraine with N-alkyl-piperidinyl benzoate derivatives” (MERRELL DOW FRANCE ET CIE, priority 1982, dated 1984)
Like-named read-outs stand apart in the source and are kept apart here.

Columns and labels:
[1] = system: von Bezold-Jarisch reflex evoked by 5-HT; test: Antagonism of the von Bezold-Jarisch reflex evoked by 5-HT in the anaesthetised rat; format: in vivo; details: iv, anaesthetised male Sprague-Dawley rat, antagonist intravenously; for ED50: dose inhibiting the response to 5-HT (2µg/kg i.v.) by 50%
Source text: The activity of the compounds of Formula I against 5-HT can be assessed in vivo by measurement of the effect of the compound on the Von Bezold-Jarisch Reflex induced by 5-HT injected intravenously into the rat (see A.S. Paintal, Physiol. Rev. 53 (159-227), 1973). The transient cardiac slowing results arises from an increased efferent vagus activity arising from stimulation by 5-HT of sensory afferent fibres in and around the heart.
Antagonism of the von Bezold-Jarisch reflex evoked by 5-HT in the anaesthetised rat was measured for N-methyl-4-piperidinyl-3',5'-dimethylbenzoate (Compound A) and N-methyl-3-piperidinyl 3',5'-dimethylbenzoate (Compound B), using the following method: • Male Sprague-Dawley rats weighing 250-300 g are anaesthetized with urethane, 1.25 g/kg injected intraperitoneally and set up for recording blood pressure and heart rate as described in Fozard J.R et al., J. Cardiovasc. Pharmacol. 2, 229-245 (1980). A submaximal dose of 5-HT (2µg/kg) is given repeatedly into the cannulated jugular vein and changes in heart rate quantified. Antagonists are given intravenously and the doses required to just inhibit the response to 5-HT (threshold dose) or to inhibit the response to 5-HT by 50% (ED50) are determined.

5-HT M-receptor [2] = molecular target: T1, 5-HT M-receptor (Oryctolagus cuniculus, UniProt A0A5F9C9J3); test: pA2 against 5-HT in the isolated rabbit heart; details: negative logarithm of molar antagonist concentration reducing effect of twice the ED50 of 5-HT to that of the ED50
T1 sequence (A0A5F9C9J3 35-494): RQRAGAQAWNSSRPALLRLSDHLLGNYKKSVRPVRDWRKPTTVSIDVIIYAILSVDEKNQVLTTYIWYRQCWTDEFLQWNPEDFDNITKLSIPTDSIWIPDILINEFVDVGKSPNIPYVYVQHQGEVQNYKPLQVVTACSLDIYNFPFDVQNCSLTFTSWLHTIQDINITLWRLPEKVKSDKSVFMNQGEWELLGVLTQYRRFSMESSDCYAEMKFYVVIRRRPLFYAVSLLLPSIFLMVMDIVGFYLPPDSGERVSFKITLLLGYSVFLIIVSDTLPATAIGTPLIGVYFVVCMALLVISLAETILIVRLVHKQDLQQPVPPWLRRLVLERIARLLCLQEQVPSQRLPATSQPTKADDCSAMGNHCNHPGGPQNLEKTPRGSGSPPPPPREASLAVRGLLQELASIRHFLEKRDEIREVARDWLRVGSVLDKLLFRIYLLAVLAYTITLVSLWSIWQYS
Procedure: The activity of the compounds against 5-HT can be assessed by determining their pA2 values in the isolated rabbit heart as described by J.R. Fozard et al Europ. J. Pharmacol. 59, 195-210 (1979). In the method described the molar concentration of antagonist which reduces the effects of twice the ED50 of 5-HT to that of the ED50 in the absence of antagonist is determined. The pA2 value is the negative logarithm of said molar concentrations.

5-HT M-receptor [3] = molecular target: T1, 5-HT M-receptor; details: 5-HT M-receptor antagonism; values reported in the literature (J.R. Fozard et al., Eur. J. Pharmacol.); cited from earlier work

Row | Molecule | ED50 [1] [mg/kg] | pA2 5-HT (5-HT M-receptor [2]) | pA2 5-HT (5-HT M-receptor [3]) | minimal effective dose ([1]; dose required to just inhibit the response to 5-HT (2µg/kg i.v.), read-out: THRESHOLD DOSE) [mg/kg]
1 | Cc1cc(C)cc(C(=O)OC2CCN(C)CC2)c1 [Compound A, N-Methyl-4-piperidinyl-3',5'-dimethylbenzoate] | 0.136 ± 0.022 | 8.1 | – | –
2 | Cc1cc(C)cc(C(=O)OC2CCCN(C)C2)c1 (stereo not drawn) [Compound B, N-Methyl-3-piperidinyl-3',5'-dimethylbenzoate] | 0.51 ± 0.116 | 7.3 | – | –
3 | CCN(CC)CCNC(=O)c1cc(Cl)c(N)cc1OC [metoclopramide] | 0.408 ± 0.0809 | – | 7.2 | 0.233 ± 0.0663
4 | COC(=O)[C@H]1[C@@H](OC(=O)c2ccccc2)C[C@@H]2CC[C@H]1N2 [nor(-)cocaine] | – | – | 7.7 | –
5 | tropyl benzoate | – | – | 7.2 | –
